Data published in patent US10717720B2, “Modified compound of andrographolide” (Heilongjiang Zhenbaodao Pharmaceutical Co., Ltd., priority 2015, dated 2020).

System: LPS-induced IL-6 release level from THP-1 cells
Assay: Test of IL-6 release from THP-1 cells (LPS-induced, IL-6 in supernatant detected by CBA)
Format: cell-based
Details: Homo sapiens; inflammatory factor IL-6 detected by CBA; compound 10 uM; LPS-stimulated THP-1 cells, supernatant after 24 hours; read-out: Inhibition rate @ 10 uM
Procedure, shortened: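 THP-1 cells were treated with compound at final 30, 10, 3 and 1 uM, with dexamethasone 100 nM as reference, then stimulated with LPS. The LPS working solution was 800 ng/ml. After 24 h at 37 °C, IL-6 in the supernatant was measured by CBA.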

## C=C1CCC2[C@]3(C)CO[C@@H](C4CCCC4)O[C@@H]3CC[C@@]2(C)[C@@H]1CCOC1CCN(CC(F)(F)F)CC1 (stereo partly drawn) [Compound 483, 4-(2-((3R,4aR,6aS,7R,10bR)-3-cyclopentyl-6a,10b-dimethyl-8-dihydromethylenedecahydro-1H-naphtho[2,1-d][1,3]dioxin-7-yl)ethoxy)-1-(2,2,2,-trifluoroethyl)piperidine]
  inhibition at 10 µM: 30 to 60%

## C=C1CCC2[C@]3(C)CO[C@@H](C4CCCC4)O[C@@H]3CC[C@@]2(C)[C@@H]1CCOC1CCN(S(=O)(=O)C2CC2)CC1 (stereo partly drawn) [Compound 484, 4-(2-((3R,4aR,6aS,7R,10bR)-3-cyclopentyl-6a,10b-dimethyl-8-dihydromethylene-decahydro-1H-naphtho[2,1-d][1,3]dioxin-7-yl)ethoxyl)-1-(cyclopropylsulfonyl)piperidine]
  inhibition at 10 µM: > 60%
